Laboratory results from patent US6960613B2, “Treatment of neurotic disorders” (H. Lundbeck A/S, priority 1999, dated 2005).

Key:
[1] = test system: footshock-induced ultrasonic vocalisation; test: Footshock-induced ultrasonic vocalisation test in adult rats; type: in vivo, rat; details: male Wistar rats, drug given 30 min before test, four 1.0 mA footshocks
Source text: The Footshock-induced Vocalisation Test in Adult Rats. The footshock-induced vocalisation test in adult rats (described in detail in Sánchez C., Effect of serotonergic drugs on footshock-induced ultrasonic vocalization in adult male rats. Behav. Pharmacol. 1993; 4:267-277) is a test for anxiolytic and anti-panic effects. Male rats (Wistar WU, Charles River, Germany), weighing 150-175 g at the beginning of the study were used. Briefly, test cages (22 cm×22 cm×22 cm) made of grey Perspex and equipped with a metal grid floor were used. Footshocks were delivered from a two pole shocker and a microphone sensitive to ultrasounds in the range of 20-30 kHz was placed in the centre of the lid of the test cage. The ultrasounds were sent from the microphone to a preamplifier and converted from AC signals to DC signals in a signal rectifier. The accumulated time, in which the voltage of the rectified signal was larger than the voltage of a previously determined threshold level, was recorded. Twenty-four hours before the first test session the animals were primed. A rat was placed in each test cage and received, immediately thereafter, four 1.0 mA inescapable footshocks each of a duration of 10 sec and with an intershock interval of 5 sec. The animals were left in the test cage for 6 min after the last shock. […] The total time spent on vocalisation was recorded. […]

[2] = test system: schedule-induced polydipsia (water intake); test: Schedule-induced polydipsia in rats; type: in vivo, rat; details: male wistar rats, oral 60 min prior to testing; Citalopram 40 mg/kg, Lu 26-054 20 mg/kg
Source text: Schedule-induced Polydipsia Food deprived rats exposed to a procedure in which food is delivered intermittently will drink large amounts of water if given the opportunity to do so. This behavioural phenomenon is called schedule-induced polydipsia and can be considered as an excessive expression of a normal behaviour. Schedule-induced polydipsia is regarded as a model of obsessive-compulsive disorder (Woods et al. 1993). Male wistar rats (Møllegard) housed in pairs and kept on a food-restricted diet (80% of normal body weight) for 2 weeks before the start of testing and throughout the duration of testing. To induce polydipsia rats were placed in test chambers where a pellet dispenser automatically dispensed one 60 mg food pellet every 60 seconds. Water was available at all times in the test chamber. Rats were tested 4-5 times per week, after 3-4 weeks training 70% of the rats were drinking >10 ml per 30 min test session. Once the rats had attained a steady drinking level compounds could be tested. Citalopram (40 mg/kg) or Lu 26-054 (20 mg/kg) were administered orally 60 min prior to testing and at 10:00 on the non-test days. The water intake was presented as a percentage of the pre-dosing (baseline) level.

[3] = test system: mice black and white box behaviour; test: Black and White Box Test in mice; type: in vivo, mouse; details: male mice, pretreatment time 30 min, test duration 5 min
Method: Black and White Box Test This is a test for anxiolytic effects. The test model is further described in Sánchez, C. (1995) Pharmacol. Toxicol. 77, 71-78. Male mice (Lundbeck strain, Charles River, Germany) weighing 30-35 g were housed in groups of 4 in macrolon cages type II under a reversed 12 h day/night cycle (lights off 7 p.m.). The mice were adapted to the reversed light/dark cycle for at least 3 weeks prior to testing. The room temperature (21±2° C.), relative humidity (55±5%), and air exchange (16 times per h) were automatically controlled. The animals had free access to commercial food pellets and water. The test box used was designed as described by Sánchez (1995) (supra). […] The lower row of photocells (2 cm above cage floor) detected horizontal locomotor activity (crossing, entries, and time in each compartment), whereas the upper row of photocells (5 cm above cage floor) detected rearing activity. The accumulated data for 1 min intervals were recorded from 4 test boxed simultaneously and stored in a Paradox data base. […] The test duration was 5 min and the number of rears and line crossings between squares in both the black and the white compartment, number of entries into the black compartment and time spent in the white compartment were assessed.

Row | Compound | maximum effect, inhibition of vocalisation [1] | water intake (percentage of pre-dosing baseline level) [2] | inhibition of vocalisation [1] | effect in black and white box model [3]
1 | CN(C)CCCC1(c2ccc(F)cc2)OCc2cc(C#N)ccc21 (racemic) [citalopram, reference compound] | 60-70% | without effect |  | 
2 | CN(C)CCC[C@@]1(c2ccc(F)cc2)OCc2cc(C#N)ccc21 [escitalopram, (S)-1-[3-(dimethyl-amino)propyl]-1-(4-fluorophenyl)-1,3-dihydro-5-isobenzofurancarbonitrile] |  | significant reduction in water intake | able to inhibit vocalisation completely | prominent effects
